Source: patent publication EP1144412B1, “IMMUNOSUPPRESSIVE EFFECTS OF PTERIDINE DERIVATIVES” (4 AZA Bioscience nv, priority 1998, dated 2000)
Where two headings read alike, the source gives them in different places.

What was measured:
Highly purified T cells [1] = assay: T cell proliferation induced by anti-CD3 mAb + PMA (BrdU incorporation); format: cell-based, Human; settings: for IC50: Homo sapiens, T-cell
From the text: (§1) Various models may be used for testing an immunosuppressive effect. In vivo, for example, different transplantation models are available. They are strongly influenced by different immunogenicities, depending on the donor and recipient species used and depending on the nature of the transplanted organ. The survival time of transplanted organs can thus be used to measure the suppression of the immune response. In vitro, there exist also various models. The most used are lymphocyte activation tests. Usually activation is measured via lymphocyte proliferation. Inhibition of proliferation thus always means immunosuppression under the experimental conditions applied. There exist different stimuli for lymphocyte activation: • coculture of lymphocytes of […] (MLR = mixed lymphocyte reaction): lymphocytes expressing different minor and major antigens of the HLA-DR type (= alloantigens) activate each other non-specifically. • CD3 assay: here there is an activation of the T-lymphocytes via an exogenously added antibody (OKT3). This antibody reacts against the CD3 molecule located on the lymphocyte membrane. This molecule has a costimulatory function. […] This molecule is also located on the lymphocyte membrane, and delivers strong costimulatory signals.
(§2) T cells were purified by removing non-T cells. Briefly,monocytes were removed by cold agglutination. The resulting lymphoid cells were further purified by a cell enrichment immunocolumn [Cellect Human T (Biotex, Edmonton, Alberta, Canada)] by a process of negative selection.
(§3) Measurements of T cell proliferations induced by anti-CD3 mAb + PMA or anti-CD28 mAb + PMA
(§4) Highly purified T cells (10^6/ml) were stimulated by immobilized anti-CD3 àr anti-CD28 mAb in the presence of PMA. Anti-CD3 mAb (CLB-CD3; CLB, Amsterdam, The Netherlands) were fixed on the 96-microwell plates by incubating the wells with 50 µl of mAb solution (1/800 dilution in culture medium). Anti-CD28 mAb (CLB-CD28; CLB, Amsterdam, The Netherlands) 50 µl (1/650 dilution in culture medium) was added directly to the wells. Further, 20 µl PMA (Sigma, St. Louis, MO, USA) solution (final concentration: 0.5 ng/ml) was added. Subsequently, 20 µl of immunosuppressants were added by serial dilution in triplicate wells. Finally 100 µl of the T cell suspension (10^6/ml) was added. After 48-hour incubation at 37EC in 5% CO2 20 Φl BrdU (100 ΦM solution) (Cell Proliferation Elisa, Boehringer-Mannheim Belgium) was added to each well. After a further overnight incubation the T cell proliferation was measured using a colorimetric immunoassay for qualification of cell proliferation based on measurements of the incorporation of BrdU during DNAsynthesis. The optical density (OD) was measured by a Behring EL311 plate reader at 450 nm (reference wavelength: 690 nm). The percent suppression of proliferation by drugs was counted using the formula: Per cent inhibition =((OD + drugs) - (OD Cult. Med.))/((OD - drugs) - (OD Cult. Med.))x 100 [formula]

[2] = tested on: Peripheral blood mononuclear cells (PBMC); assay: Mixed lymphocyte reaction (MLR), [3H]-thymidine incorporation; format: cell-based; settings: Homo sapiens
From the text: as §1
Peripheral blood mononuclear cells (PBMC) were isolated from heparinized peripheral blood by density gradient centrifugation over Lymphoprep (Nycomed, Maorstua, Norway). Allogeneic PBMC or EBV-transformed human B cells [RPMI1788 (ATCC name CCL156)] which strongly express B7-1 and B7-2 were used as stimulator cells after irradiation with 30 Gy. MLR was performed in triplicate wells. After 5 days incubation at 37EC, 1 µCi [^3H]-thymidine was added to each cup. After a further 16 hours incubation, cells were harvested and counted in a β-counter.
The percent suppression of proliferation by drugs was counted using the formula Percent inhibition =((cpm + drugs) - cpm Cult. Med)/((cpm - drugs) - cpm Cult. Med.)x 100 [formula]

Highly purified T cells [3] = assay: T cell proliferation induced by anti-CD28 mAb + PMA (BrdU incorporation); format: cell-based, Human; settings: for IC50: Homo sapiens, T-cell
From the text: as §1, §2, §3, §4

[4] = Table II, read-out: IC50 in µM of pteridine derivative ACD3
[5] = untitled structure table, no unit printed there, same values in Table II as IC50 in µM, read-out: aCD3
[6] = Table II, read-out: IC50 in µM of pteridine derivative MLR
[7] = untitled structure table, no unit printed there, same values in Table II as IC50 in µM, read-out: MLR
[8] = Table II, read-out: IC50 in µM of pteridine derivative aCD28
[9] = untitled structure table, no unit printed there, same values in Table II as IC50 in µM, read-out: aCD28
[10] = untitled structure table, IC50 subranges, read-out: aCD3
[11] = untitled structure table, IC50 subranges, read-out: MLR
[12] = untitled structure table, IC50 subranges, read-out: aCD28
[13] = Table IV, known pteridine derivatives, IC50 subranges, read-out: aCD3
[14] = Table IV, known pteridine derivatives, IC50 subranges, read-out: MLR
[15] = Table IV, known pteridine derivatives, IC50 subranges, read-out: aCD28
[16] = Table III, comparison immunosuppressants, read-out: IC50 aCD3

Row | Structure (SMILES) | IC50 (Highly purified T cells [1]; [4]) | IC50 (Highly purified T cells [1]; [5]) | IC50 [2, 6] | IC50 [2, 7] | IC50 (Highly purified T cells [3]; [8]) | IC50 (Highly purified T cells [3]; [9]) | further results
1 | Nc1nc(N(Cc2ccccc2)Cc2ccccc2)c2nc(-c3ccccc3)cnc2n1 [Compound 25, 2-amino-4-dibenzylamino-6-phenyl pteridine] | 25 µM | 25 µM | 75 µM | 75 µM | 25 µM | 25 µM | 
2 | CN1CCN(c2nc(N)nc3ncc(-c4ccc(Cl)cc4)nc23)CC1 [Compound 42, 2-amino-4-N-methylpiperazino-6-(4-chlorophenyl)pteridine] | 11 µM | 11 µM | 4.8 µM | 4.8 µM | 4.2 µM | 4.2 µM | 
3 | Nc1nc(N)c2nc(-c3ccccc3)cnc2n1 [Compound 5, 2,4-diamino-6-phenyl pteridine] | > 200 µM | > 200 µM | > 200 µM | > 200 µM | > 200 µM | > 200 µM | 
4 | Cc1cnc2nc(N)nc(N(C)C)c2n1 [Compound 60, 2-amino-4-dimethylamino-6-methylpteridine] |  |  |  |  |  |  | IC50 (Highly purified T cells [1]; [10]): 16 to 150 µM; IC50 [2, 11]: 16 to 150 µM; IC50 (Highly purified T cells [3]; [12]): 16 to 150 µM
5 | Nc1nc(N2CCCCC2)c2nc(-c3ccccc3)cnc2n1 [Compound 37, 2-amino-4-piperidino-6-phenylpteridine] | 80 µM | 80 µM | 15 µM | 15 µM | 20 µM | 20 µM | 
6 | COc1ccc(-c2cnc3nc(N)nc(N(Cc4ccccc4)Cc4ccccc4)c3n2)cc1 [Compound 27, 2-amino-4-dibenzylamino-6-(4-methoxyphenyl) pteridine] | 20 µM | 20 µM | 50 µM | 50 µM | 15 µM | 15 µM | 
7 | COc1ccc(-c2cnc3nc(N)nc(N4CCN(C)CC4)c3n2)cc1OC [Compound 44] | 7.3 µM | 7.3 µM | 2 µM | 2 µM | 6.5 µM | 6.5 µM | 
8 | CCOCc1cnc2nc(N)[nH]c(=O)c2n1 [CH2OC2H5, reference compound] |  |  |  |  |  |  | IC50 (Highly purified T cells [1]; [13]): > 151 µM; IC50 [2, 14]: > 151 µM; IC50 (Highly purified T cells [3]; [15]): > 151 µM
9 | CCCCCOc1nc(N)nc2ncc(C=Cc3ccccc3)nc12 [Compound 1, 2-amino-4-pentoxy-6-styrylpteridine] | 110 µM | 110 µM | 15 µM | 15 µM | 80 µM | 80 µM | 
10 | CCCCCOc1nc(N)nc2ncc(C(Br)C(Br)c3ccccc3)nc12 (centres unmarked) [Compound 2, 2-amino-4-n-pentoxy-6-(1,2-dibromo-2-phenylethyl)pteridine] | 4 µM | 4 µM | 12 µM | 12 µM | 12 µM | 12 µM | 
11 | COCCOCc1cnc2nc(N)nc(N)c2n1 [Compound 17, 2,4-diamino-6-methoxyethoxymethyl pteridine] | 180 µM | 180 µM | > 200 µM | > 200 µM | 18 µM | 18 µM | 
12 | C=CC[C@@H]1/C=C(\C)C[C@H](C)C[C@H](OC)[C@H]2O[C@@](O)(C(=O)C(=O)N3CCCC[C@H]3C(=O)O[C@H](/C(C)=C/[C@@H]3CC[C@@H](O)[C@H](OC)C3)[C@H](C)[C@@H](O)CC1=O)[C@H](C)C[C@@H]2OC [FK506, tacrolimus, reference compound] |  |  |  |  |  |  | activity in the anti-CD3 + PMA test (Highly purified T cells [1]): only active; IC50 (Highly purified T cells [1]; [16]): 0.001 µM; IC50 ([2]; Table III, comparison immunosuppressants, read-out: IC50 MLR): 0.001 µM; activity in the anti-CD28 + PMA test (Highly purified T cells [3]): not suppressive
13 | CSCc1cnc2nc(N)[nH]c(=O)c2n1 [CH2S CH3, reference compound] |  |  |  |  |  |  | IC50 (Highly purified T cells [1]; [13]): > 151 µM; IC50 [2, 14]: > 151 µM; IC50 (Highly purified T cells [3]; [15]): > 151 µM
14 | Nc1nc(N2CCOCC2)c2nc(-c3ccc4c(c3)OCO4)cnc2n1 [Compound 56, 2-amino-4-morpholino-6-(3,4-formylidene-3,4-dihydroxyphenyl)pteridine] |  |  |  |  |  |  | IC50 (Highly purified T cells [1]; [10]): 16 to 150 µM; IC50 [2, 11]: 1 to 15 µM; IC50 (Highly purified T cells [3]; [12]): 16 to 150 µM
15 | CCN(CC)c1nc(N)nc2ncc(-c3ccc(OC)c(OC)c3)nc12 [Compound 24, 2-amino-4-diethylamino-6-(3,4-dimethoxyphenyl) pteridine] | 0.5 µM | 0.5 µM | 0.08 µM | 0.08 µM | 0.1 µM | 0.1 µM | 
16 | CN(C)Cc1cnc2nc(N)[nH]c(=O)c2n1 [CH2N(CH3)2, reference compound] |  |  |  |  |  |  | IC50 (Highly purified T cells [1]; [13]): > 151 µM; IC50 [2, 14]: > 151 µM; IC50 (Highly purified T cells [3]; [15]): > 151 µM
17 | CSCc1cnc2nc(N)nc(N)c2n1 [CH2 S CH3, reference compound] |  |  |  |  |  |  | IC50 (Highly purified T cells [1]; [13]): > 151 µM; IC50 [2, 14]: > 151 µM; IC50 (Highly purified T cells [3]; [15]): > 151 µM
18 | Nc1nc(N)c2nc(-c3ccc(Cl)cc3)cnc2n1 [Compound 9, 2,4-diamino-6-(4-chlorophenyl)pteridine] | 110 µM | 110 µM | 125 µM | 125 µM | 110 µM | 110 µM | 
19 | COc1ccc(-c2cnc3nc(NC(C)=O)nc(O)c3n2)cc1OC [Compound 64, 2-acetamido-4-hydroxy-6-(3,4-dimethoxyphenyl)pteridine] |  |  |  |  |  |  | IC50 (Highly purified T cells [1]; [10]): > 151 µM; IC50 [2, 11]: 16 to 150 µM; IC50 (Highly purified T cells [3]; [12]): 16 to 150 µM
20 | COc1ccc(-c2cnc3nc(N)nc(N(C)C)c3n2)cc1 [Compound 16, 2-amino-4-dimethylamino-6-(4-methoxyphenyl)pteridine] | 7.5 µM | 7.5 µM | 12 µM | 12 µM | 7.5 µM | 7.5 µM | 
21 | Nc1nc(N2CCNCC2)c2nc(-c3ccc(Cl)cc3)cnc2n1 [Compound 47, 2-amino-4-piperazino-6-(4-chlorophenyl)pteridine] | 20 µM | 20 µM | 2 µM | 2 µM | 15 µM | 15 µM | 
22 | CCN(CC)c1nc(N)nc2ncc(-c3ccc(Cl)cc3)nc12 [Compound 22, 2-amino-4-diethylamino-6-(4-chlorophenyl) pteridine] | 50 µM | 50 µM | 17 µM | 17 µM | 20 µM | 20 µM | 
23 | CCCN(CCC)c1nc(N)nc2ncc(-c3ccccc3)nc12 [Compound 29, 2-amino-4-dipropylamino-6-phenylpteridine] | 25 µM |  | 15 µM | 15 µM | 25 µM | 25 µM | 
24 | CCCNc1nc(N)nc2ncc(-c3ccc(OC)c(OC)c3)nc12 [Compound 63, 2-amino-4-propylamino-6-(3,4-dimethoxyphenyl)pteridine] |  |  |  |  |  |  | IC50 [2, 11]: < 1 µM
25 | O=c1[nH]cc(F)c(=O)[nH]1 [Compound 5-FU, 5-Fluoro-uracil, reference compound] |  |  |  |  |  |  | IC50 (Highly purified T cells [1]; [16]): 50 µM; IC50 (Highly purified T cells [3]; Table III, comparison immunosuppressants, read-out: IC50 aCD28): 17 µM
26 | CCOc1nc(N)nc2ncc(-c3ccc(OC)c(OC)c3)nc12 [Compound 66, 2-amino-4-ethoxy-6-(3,4-dimethoxyphenyl)pteridine] |  |  |  |  |  |  | IC50 (Highly purified T cells [1]; [10]): < 1 µM; IC50 (Highly purified T cells [3]; [12]): < 1 µM
